Measured values published in US11136325B2, “Pyrrolopyrimidine and pyrrolopyridine derivatives” (GALAPAGOS NV, priority 2017, dated 2021).

What was measured:
hASK1 = hASK1 (Homo sapiens (Human), UniProt Q99683); test: ASK1 biochemical assay (IMAP technology); settings: 150 μM ATP, 6 nM hASK1
Description: IMAP® technology provides a homogeneous assay applicable to a wide variety of kinases, phosphatases, and phosphodiesterases without regard for substrate peptide sequence. The assay is a simple mix-and-read procedure allowing accurate determination of enzyme activity. Based on the specific, high-affinity interaction of phospho groups with trivalent metal-containing nanoparticles (beads), IMAP is a generic, non-antibody-based platform to assess kinase, phosphatase, and phosphodiesterase activity. An enzyme reaction is performed using fluorescently labeled substrate. Addition of the IMAP Binding System stops the enzyme reaction and initiates binding of the beads to phosphorylated substrates. Binding of the substrate to the beads, which correlates to enzyme activity, can be detected using either FP or TR-FRET as a readout.
Apoptosis Signal-regulating Kinase (ASK1), also known as MAP3K5, is a member of the mitogen-activated protein kinase kinase kinase (MAP3K) family of kinases. It activates the Jnk and p38 pathways through the MAP2Ks MKK4/7 and MKK3/6 (respectively). This ASK1 IMAP assay uses the following IMAP peptide: RP7140-T2 (5TAMRA-GTFRAAIRRLAARRR-OH, SEQ ID NO: 1). The assay has been configured to run at Km for ATP ([…]) so that it will be sensitive to ATP-competitive inhibitors. The final assay conditions are […], 1 mM DTT, 200 nM peptide and 6 nM ASK1 (total protein). The binding reagent is made up in 100% A at a final dilution of 1:200.
KIT IMAP FP, Cat. No. R8127; Reaction Buffer-Tween (5× conc.), Molecular Devices, Cat. No. R7436; Diluted 1:5 with H2O and containing DTT (1 mM from 1M stock); Progressive Binding Buffer (PBB) A (5× conc.), Molecular Devices, Cat. No. R7282; Progressive Binding Reagent (PB Reagent), Molecular Devices, Cat. No. R7284; Enzyme Solution (containing 2× Ask1 in Reaction buffer); Substrate Solution (containing 2× peptide substrate in Reaction buffer, and 2×150 μM ATP in Reaction buffer); Bead Buffer (Progressive Binding Buffer A diluted 1:5 with H2O); Bead Solution (Bead Buffer containing 1:200 Progressive Binding Reagent (2×))
100 nL of test compound in 100% DMSO was added to 384-well plates. For a dose response experiment a 1 in 4 dilution of compound (25 μM top final concentration) was used. 3 μL of hASK1 (6 nM), hASK2 (25 nM) or rASK1 (15 nM) was added to each well except in the control well to which 3 μL buffer was added. 3 μL of substrate solution was added to each well and the plates were incubated for 4 h at room temperature. After which time 6 μL of IMAP™ Bead Solution (Progressive Binding Buffer A+PB Reagent; final dilution 1:100) was added to each well and spun for 1 minute at 1000 rpm. The plates were then incubated for 2 h at room temperature after which time the plates were read on a Perkin Elmer EnVision plate reader.
Calculation of IC50 data, curves and QC analysis was made by using Excel tools and GraphPadPrism software, v. 5.03. Briefly, individual concentration-effect curves are generated by plotting the logarithm of the tested concentration of tested compounds (X) vs. corresponding percent inhibition values (Y) using least squares (ordinary) fit. Up to ¼ points from high/low controls are allowed to be excluded, but only if values are >Avg.±1*SD. Fitting equation used for IC50 calculation=log(inhibitor) vs. response−Variable slope (four parameters). Calculated results: Calc 1: mP value for FP measurement=1000*(S−G*P)/(S+G*P) where S=<detector 2 or FP-BodipyTAMRA_Ex531-Em579-optimized(1) channel 2>P=<detector 1 or FP-BodipyTAMRA_Ex531-Em579-optimized(1) channel 1>G=G-factor. Gain=100. Top constrain is used only if top values are not correctly calculated.
Minimum constrained if less than −30% I or greater than 30% I. Maximum constrained if less than 70% I or greater than 130% I. Z′-Factor Target>0.4. Hill Slope range 0.5 to 5.

[1] = molecular target: Full length human ASK1 protein (Homo sapiens (Human), UniProt Q99683); test: ASK1 biochemical assay (AlphaScreen technology, MKK7 phosphorylation); settings: 150 μM ATP, 400 nM MKK7, 0.8 nM ASK1
Description: ASK1 and ASK2 biochemical activities were also quantified using AlphaScreen technology which measures the degree of phosphorylation of a protein substrate (MKK7). AlphaScreen technology is based on the binding of a substrate to two types of beads, acceptor and donor. Binding to one bead is through the tag of the substrate protein. Binding of the second bead is through phosphospecific binding of antibody to the phosphosite of the substrate. This forms a sandwich, with the acceptor and donor beads in close proximity. When the donor beads are excited by light in the 680 nm range, a singlet oxygen is released and causes emission of light from the acceptor in the 620 nm range which can be detected using a suitable plate reader.
The phosphorylation site on MKK7 (Ser271/Thr275) is then recognised by a phosphospecific antibody. The phosphospecific antibody is bound to the AlphaScreen acceptor beads through a Protein-A interaction. Phosphorylation of MKK7 by ASK1 or ASK2 subsequently facilitates the bringing together of the donor and acceptor beads into close proximity whereupon the transfer of the singlet oxygen leads to the generation of the AlphaScreen signal.
The assay was configured to run using the following conditions (final concentrations): 150 μM ATP; 400 nM MKK7; 0.8 nM ASK1 and 2 nM ASK2.
100 nL of test compound (starting concentration 6 μM, 11 concentrations with 3 fold serial dilutions) in 100% DMSO was added to low volume 384 well plates. 2.5 μl of ASK1 or ASK2 was added to each well except in the control wells to which 2.5 μl buffer was added. 2.5 μl of MKK7 solution was added to all wells. The plate was incubated for 60 minutes at room temperature. Protein-A acceptor beads and phospho-specific antibody were incubated for 30 minutes and then 2.5 μl of Protein-A acceptor beads/phospho-specific antibody mix (2.5 μg/ml acceptor beads final concentration and 1/800 antibody final dilution) was added to each well. The plate was incubated for 30 minutes at room temperature and then 2.5 μl of GSH donor beads (10 μg/ml […] final concentration) was added to each well. The plate was incubated for a further 60 minutes at room temperature, following which the plate was read on a Perkin Elmer Enspire plate reader.
Calculation of IC50 data, curves and QC analysis were made by using Excel tools and GraphPadPrism software, v. 5.03. Briefly, individual concentration-effect curves were generated by plotting the logarithm of the tested concentration of tested compounds (X) vs. corresponding percent inhibition values (Y) using least squares (ordinary) fit. Fitting equation used for IC50 calculation=log(inhibitor) vs. response−Variable slope (four parameters).

Chain of hASK1 (Q99683 whole entry): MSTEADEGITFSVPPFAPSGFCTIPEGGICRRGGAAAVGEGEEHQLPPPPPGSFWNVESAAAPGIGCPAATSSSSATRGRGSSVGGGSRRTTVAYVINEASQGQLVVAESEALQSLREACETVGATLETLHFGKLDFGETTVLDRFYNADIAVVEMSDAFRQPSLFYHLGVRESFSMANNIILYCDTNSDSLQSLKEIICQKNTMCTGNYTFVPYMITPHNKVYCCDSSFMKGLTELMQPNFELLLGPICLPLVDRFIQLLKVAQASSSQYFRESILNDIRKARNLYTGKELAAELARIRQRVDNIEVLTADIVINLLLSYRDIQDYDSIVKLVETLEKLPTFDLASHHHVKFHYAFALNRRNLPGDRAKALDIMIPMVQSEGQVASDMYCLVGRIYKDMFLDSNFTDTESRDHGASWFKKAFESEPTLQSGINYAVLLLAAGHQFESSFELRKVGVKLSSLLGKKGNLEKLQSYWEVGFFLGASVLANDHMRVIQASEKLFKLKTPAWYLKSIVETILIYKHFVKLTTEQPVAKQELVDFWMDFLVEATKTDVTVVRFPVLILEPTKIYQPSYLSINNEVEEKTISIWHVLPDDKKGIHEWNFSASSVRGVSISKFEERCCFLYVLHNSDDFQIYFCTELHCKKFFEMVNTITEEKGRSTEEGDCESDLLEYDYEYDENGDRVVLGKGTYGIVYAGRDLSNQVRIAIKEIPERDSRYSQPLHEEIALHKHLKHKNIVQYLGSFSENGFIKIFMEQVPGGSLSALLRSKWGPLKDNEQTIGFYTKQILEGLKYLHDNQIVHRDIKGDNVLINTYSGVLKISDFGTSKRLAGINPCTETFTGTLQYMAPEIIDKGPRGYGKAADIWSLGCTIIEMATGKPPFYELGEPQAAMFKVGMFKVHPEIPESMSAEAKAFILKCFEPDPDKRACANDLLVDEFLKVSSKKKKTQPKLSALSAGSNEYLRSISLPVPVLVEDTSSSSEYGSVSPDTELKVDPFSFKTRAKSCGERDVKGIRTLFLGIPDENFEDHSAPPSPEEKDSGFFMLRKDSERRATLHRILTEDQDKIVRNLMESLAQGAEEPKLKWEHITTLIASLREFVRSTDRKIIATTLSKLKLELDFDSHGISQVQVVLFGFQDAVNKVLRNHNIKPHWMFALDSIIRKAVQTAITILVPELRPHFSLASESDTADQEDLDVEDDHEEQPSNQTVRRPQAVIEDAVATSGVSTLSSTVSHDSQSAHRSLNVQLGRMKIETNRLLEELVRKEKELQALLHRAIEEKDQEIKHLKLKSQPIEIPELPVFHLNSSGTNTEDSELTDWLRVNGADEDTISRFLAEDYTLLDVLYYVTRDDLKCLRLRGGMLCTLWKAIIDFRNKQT
Chain of Full length human ASK1 protein (Q99683 whole entry): as above

Row | SMILES | Inhibition (pIC50) ASK1 (hASK1) | Inhibition (pIC50) ASK1 [1]
1 | Cc1c[nH]c2ncnc(N3CCC(NC(=O)c4cc(N)ncc4Cl)CC3)c12 [Compound 3, 2-amino-5-chloro-N-[1-(5-methyl-7H-pyrrolo[2,3-d]pyrimidin-4-yl)-4-piperidyl]-pyridine-4-carboxamide] | 8.05/— | 8.7
2 | Cc1c[nH]c2ncc(C#N)c(N3CCC(NC(=O)c4cc(N)ncc4F)CC3)c12 [Compound 6, 2-amino-N-[1-(5-cyano-3-methyl-1H-pyrrolo[2,3-b]pyridin-4-yl)-4-piperidyl]-5-fluoro-pyridine-4-carboxamide] | 8.98/— | 8.98/—^
3 | Nc1cc(C(=O)NC2CCN(c3ncnc4[nH]cc(Cl)c34)CC2)c(F)cn1 [Compound 5, 2-amino-N-[1-(5-chloro-7H-pyrrolo[2,3-d]pyrimidin-4-yl)-4-piperidyl]-5-fluoro-pyridine-4-carboxamide] | 8.43/— | 8.8/—
4 | Nc1cc(C(=O)NC2CCN(c3ncnc4[nH]cc(Cl)c34)CC2)ccn1 [Compound 4, 2-amino-N-[1-(5-chloro-7H-pyrrolo[2,3-d]pyrimidin-4-yl)-4-piperidyl]pyridine-4-carboxamide] | 8.46 | 9.4
5 | Cc1c[nH]c2ncnc(N3CCC(NC(=O)c4cc(N)ncc4F)CC3)c12 [Compound 1, 2-amino-5-fluoro-N-[1-(5-methyl-7H-pyrrolo[2,3-d]pyrimidin-4-yl)-4-piperidyl]pyridine-4-carboxamide] | 8.24 | 8.72
6 | Nc1cc(C(=O)NC2CCN(c3ccnc4[nH]cc(Cl)c34)CC2)c(F)cn1 [Compound 7, 2-amino-N-[1-(3-chloro-1H-pyrrolo[2,3-b]pyridin-4-yl)-4-piperidyl]-5-fluoro-pyridine-4-carboxamide] | 8.24/— | 8.24/—^
7 | Cc1cnc(N)cc1C(=O)NC1CCN(c2ncnc3[nH]cc(C)c23)CC1 [Compound 2, 2-amino-5-methyl-N-[1-(5-methyl-7H-pyrrolo[2,3-d]pyrimidin-4-yl)-4-piperidyl]pyridine-4-carboxamide] | 8.17 | 8.9/—
